Measured values from patent publication US8628806B2, “Hypolipidemic composition and its use” (Hangzhou Minsheng Pharmaceutical Co., Ltd., priority 2006, dated 2014).

Columns and labels:
hyperlipidemia mice [1] = experiment: Example 14 lipid lowering screening test in yolk emulsion hyperlipidemia mice; assay type: in vivo; settings: hyperlipidemia ICR mice; ig once daily 7 days; dose 20 mg/kg; X±SD, 10 animals
Description: As described before, the test medicine is the mixture of H series and B series in the ratio H:B (3:1). Recommended dose (for animal) is: […] the recommended does is 200 mg/kg. • Test medicine 1: H1+B1, ig 0.2 ml/10 g; • Test medicine 2: H2+B1, ig 0.2 ml/10 g; • Test medicine 3: H3+B1, ig 0.2 ml/10 g; • Test medicine 4: H4+B1, ig 0.2 ml/10 g; • Test medicine 5: H5+B1, ig 0.2 ml/10 g; • Test medicine 6: H1+B2, ig 0.2 ml/10 g; • Test medicine 7: H2+B2, ig 0.2 ml/10 g; • Test medicine 8: H3+B2, ig 0.2 ml/10 g; • Test medicine 9: H4+B2, ig 0.2 ml/10 g; • Test medicine 10: H5+B2, ig 0.2 ml/10 g; • Test medicine 11: HB ig 0.2 ml/10 g.
130 SPF ICR mice were employed with the body weight 20±2 g, half are male and the other half are female. Provided by Zhejiang Province Experimental Animal Center, Licence: SCXK(ZHE)2003-0001
(§1) 90 ml yolk and 30 ml physiological Saline were mixed thoroughly in electric mixer to form emulsion, which was stored at 4° C. for further use.
(§2) 140 ICR mice were randomly divided into 14 groups: test medicine 1, test medicine 2, test medicine 3, test medicine 4, test medicine 5, test medicine 6, test medicine 7, test medicine 8, test medicine 9, test medicine 10, test medicine 11, postive control group (Zocor), model control group and normal control group, 10 mice for each group, half male and half female. Once daily for a continous 7-day period, the model control group and normal control group were provided with same volume of distilled water, while the other groups were administered with medicines by gastric perfusion. 2 hours after the last gastric perfusion, except of the normal control group, fresh yolk emulsion was intraperitoneally injected to the rest 13 groups of mice, 0.5 ml for a single animal. After 20 hours, eye ball was plucked and blood was collected, make sure 12 hours fasting before the collection. The content of total cholesterol (TC), triglyceride (TG) and high density lipoprotein (HDL-C) of the serum were measured.
EXCEL was employed to analyze the significant difference between the groups. The result is shown in X±SD.

hyperlipidemia mice [2] = experiment: Example 15 hypolipidemic effect of peony/Codonopsis extract ratios in yolk emulsion hyperlipidemia mice; assay type: in vivo; settings: hyperlipidemia ICR mice
Description: Group H1 and B1 were mixed in different ratios (see Table 8) and formulated into different test medicines. Recommended dose (animal): H1+B1=200 mg/kg body weight, ig dose is 0.2 ml/10 g body weight. [table] 100 SPF ICR mice were employed with the body weight 20±2 g, half are male and the other half are female. Provided by Zhejiang Province Experimental Animal Center, Licence: SCXK(ZHE)2003-0001 90 ml yolk and 30 ml physiological Saline were mixed thoroughly in electric mixer to form emulsion, which was stored at 4° C. for further use. […]: test medicine 1-23 groups, postive control group (Zocor), model control group and normal control group, 10 mice for each group, half male and half female. […] The content of total cholesterol (TC), triglyceride (TG) and high density lipoprotein (HDL-C) of the serum were measured. T test was employed to analyze the significant difference between the groups. The result is shown in X±SD.

hyperlipidemia mice [3] = experiment: Example 16 dose screening of H1+B1 (4:1) in yolk emulsion hyperlipidemia mice; assay type: in vivo, ICR mice; settings: dose 20 mg/kg ig once daily 7 days; X±SD, 10 animals
Description: H1 is peony extract obtained from Example 1. B1 is Codonopsis extract obtained from Example 7. The test medicines are mixtures of H1 and B1 with the ratio of 4:1 (the weight ratio of peony extract and Codonopsis extract is 2.7:1).
80 SPF ICR mice were employed with the body weight 20±2 g, half are male and the other half are female. Provided by Zhejiang Province Experimental Animal Center, Licence: SCXK(ZHE)2003-0001
as §1
as §2, with “80 ICR” for “140 ICR”, “into 8” for “into 14”, “5,” for “5, test medicine 6, test medicine 7, test medicine 8, test medicine 9, test medicine 10, test medicine 11,”, “a continuous” for “a continous”, “except for” for “except of”, “rest 7” for “rest 13”
T test was employed to analyze the significant difference between the groups. The result is shown in X±SD.

[4] = ig once daily 7 days, dose 20 mg/kg, X±SD, 10 animals
[5] = test medicines 200 mg/kg, positive control 20 mg/kg, ig 7 days

SMILES: CCC(C)(C)C(=O)O[C@H]1C[C@@H](C)C=C2C=C[C@H](C)[C@H](CC[C@@H]3C[C@@H](O)CC(=O)O3)[C@H]21 [positive control group]
- HDL-C (serum high density lipoproteincholesterol content) (hyperlipidemia mice [1]): 1.39 ± 0.23 mmol/L
- HDL-C/TC (hyperlipidemia mice [1]): 0.18 ± 0.05
- TC (total serum cholesterol content) (hyperlipidemia mice [1]): 8.58 ± 4.18 mmol/L
- TG (serum triglyceride content) (hyperlipidemia mice [1]): 7.78 ± 5.36 mmol/L
- HDL-C (serum high density lipoproteincholesterol content) (hyperlipidemia mice [2]; [4]): 1.59 ± 0.13 mmol/L
- HDL-C/TC (hyperlipidemia mice [2]; [4]): 0.22 ± 0.08
- TC (total serum cholesterol content) (hyperlipidemia mice [2]; [4]): 8.03 ± 3.12 mmol/L
- TG (serum triglyceride content) (hyperlipidemia mice [2]; [4]): 8.57 ± 4.20 mmol/L
- TC compared with model control group (hyperlipidemia mice [2]; [5]): lower TC, with significant difference (P<0.05)
- TG compared with model control group (hyperlipidemia mice [2]; [5]): lower TG, with significant difference (P<0.05)
- HDL-C (serum high density lipoproteincholesterol content) (hyperlipidemia mice [3]): 1.35 ± 0.15 mmol/L
- HDL-C/TC (hyperlipidemia mice [3]): 0.26 ± 0.06
- TC (total serum cholesterol content) (hyperlipidemia mice [3]): 5.97 ± 2.40 mmol/L
- TG (serum triglyceride content) (hyperlipidemia mice [3]): 4.31 ± 3.28 mmol/L
